Results taken from US12516346B2, “Intelligent genetic breeding and seed production system for crop cross breeding and hybrid seed production, and application thereof” (Hainan Bolian Technology Co., Ltd., priority 2020, dated 2026).

What was measured:
Format in all cases: in vivo, rice
[1] = system: GAT T0 generation transformants and wild-type control ZH11; test: Bentazon sensitive phenotype, spraying of scribed leaf area, T0 generation
Procedure: In order to test the working efficiency of herbicide sensitive elements in the GAT system, after the identification of bispyribac-sodium resistance phenotype, a 3 g/L bentazone solution was prepared with 48% bentazone mother liquor (Changzhou Precision Biotechnology Co., Ltd.). The scribed area of plant leaves of surviving GAT T0 generation (347 strains) in the last spraying experiment with bispyribac-sodium and the wild-type control ZH11 were sprayed with the resultant solution, and were continuously observed after spraying. Some GAT transformants T0 had curly and yellow leaf tips on the third day after spraying. […] Meanwhile, 86 strains were highly resistant to bispyribac-sodium and highly sensitive to bentazone. Based on the similar analysis of the transformation events of the above bispyribac-sodium resistance strains, it can be seen that this experiment confirmed that the working efficiency of herbicide sensitive elements in the GAT system is high, and the created GAT seed breeding system can quickly and accurately identify the corresponding phenotype thereof.

[2] = system: T1 generation seedlings of GAT key plants, ZH11, CK+ (P450i2-30); test: Bentazone spraying of T1 generation seedlings; settings: 3 g/L bentazone
Procedure: In order to identify the working efficiency of herbicide sensitive elements in the T1 generation of the GAT transformants, a 3 g/L bentazone solution was prepared with 48% bentazone mother liquor (Changzhou Precision Biotechnology Co., Ltd.). Some plants in the positive strains screened by bispyribac-sodium in Example 5-1 were sprayed, and continuously observed after spraying. […] See Table 3 and FIG. 22 for specific results.
ZH11 is Resistance Control, CK+(P450i2-30) is the Sensitive Positive Control

[3] = system: GAT T0 generation transformants and wild-type control ZH11 seedlings; test: Bispyribac-sodium resistance phenotype, spraying of T0 seedlings
Procedure: In order to test the working efficiency of screening marker elements in the GAT system, a 600 mg/L bispyribac-sodium solution was prepared with 10% bispyribac-sodium (Nominee, Japan), and 563 GATT0 generation obtained in example 2 and wild-type control ZH11 3 to 5 leaf stage seedlings were sprayed. After spraying, continuous observation was carried out.

[4] = system: seeds of GAT key strains and ZH11; test: Tissue culture germination screening on bispyribac-sodium (BS) medium; settings: 1/2MS + 3 μm bispyribac-sodium
Procedure: In order to identify the working efficiency of screening marker elements in the GAT T1 generation, tissue culture germination was used to screen the T1 generation of key strains and candidate strains.
Therefore, ½MS medium+3 μm bispyribac-sodium was prepared for screening the key strains and the candidate strains of GAT, and the germination results were shown in Table 2.

[5] = system: seeds of GAT strains, hybrids with sterile line 1907, ZH11, 9311, MH63; test: Detection of the escape rate of GAT pollen: seed screening on BS medium; settings: 21 days; for Survival number / Survival rate: 1/2MS + 3uM BS
Text: To further detect whether its pollen escapes, in this example, the rice material of common sterile line was pollinated through the strains of the excellent initial maintainer line of GAT, and it was checked whether the hybrid seed has the resistance to bispyribac-sodium (the method is the same as that in Example 5). […] GAT strains (23-2, 88-4) were selected as male parents to pollinate female sterile line 1907, and 221 and 373 hybrid seeds were obtained respectively.

[6] = 347 GAT T0 strains, 3 g/L bentazone
[7] = strain 11-1 T1, 8 plants sprayed
[8] = strain 23-2 T1, 12 plants sprayed
[9] = strain 23 T1, 14 plants sprayed
[10] = strain 53-3 T1, 8 plants sprayed
[11] = strain 77-2 T1, 2 plants sprayed
[12] = strain 88-4 T1, 13 plants sprayed
[13] = strain 93-2 T1, 9 plants sprayed
[14] = strain 95-2 T1, 2 plants sprayed
[15] = strain 174-3 T1, 10 plants sprayed
[16] = strain 175-4 T1, 7 plants sprayed
[17] = strain CK + (P450i2-30) (sensitive positive control), 4 plants sprayed
[18] = strain ZH11 (resistance control), 4 plants sprayed
[19] = 563 GAT T0 transformants, 600 mg/L spray, 14th day
[20] = hybrid 1907 × 23-2(T1), total number 211
[21] = hybrid 1907×88-4(T1), total number 363
[22] = strain 23-2(T2), total number 200
[23] = strain 88-4(T2), total number 200

CC(C)N1C(=O)c2ccccc2NS1(=O)=O [bentazone]
number of low sensitive or non-phenotypic strains [1, 6]: 122 strains | number of strains withered severely then recovered (moderately sensitive) [1, 6]: 81 strains | number of strains with irreversible leaf wilt (highly sensitive) ([1]; 347 GAT T0 strains, 3 g/L bentazone, 7th to 14th day): 144 strains | number of strains highly resistant to bispyribac-sodium and highly sensitive to bentazone ([1]; GAT T0 strains, 600 mg/L bispyribac-sodium then 3 g/L bentazone): 86 strains | number of strains with individual plants slightly less sensitive, eventually died ([2]; T1 strains): 5 strains | number of strains highly susceptible to wilt and death (highly sensitive) ([2]; bispyribac-sodium resistance T1 strains, 14th day): 6 strains | Highly sensitive ratio ([2]; strain 4 T1, 2 plants sprayed): 1/2 | Highly sensitive(dead) ([2]; strain 4 T1, 2 plants sprayed): 1 | Low sensitivity ([2]; strain 4 T1, 2 plants sprayed): 0 | Medium sensitivity ([2]; strain 4 T1, 2 plants sprayed): 1 | No phenotype ([2]; strain 4 T1, 2 plants sprayed): 0 | Highly sensitive ratio ([2]; strain 7 T1, 15 plants sprayed): 2/15 | Highly sensitive(dead) ([2]; strain 7 T1, 15 plants sprayed): 2 | Low sensitivity ([2]; strain 7 T1, 15 plants sprayed): 13 | Medium sensitivity ([2]; strain 7 T1, 15 plants sprayed): 0 | No phenotype ([2]; strain 7 T1, 15 plants sprayed): 0 | Highly sensitive ratio [2, 7]: 8/8 | Highly sensitive(dead) [2, 7]: 8 | Low sensitivity [2, 7]: 0 | Medium sensitivity [2, 7]: 0 | No phenotype [2, 7]: 0 | Highly sensitive ratio ([2]; strain 20 T1, 3 plants sprayed): 2/3 | Highly sensitive(dead) ([2]; strain 20 T1, 3 plants sprayed): 2 | Low sensitivity ([2]; strain 20 T1, 3 plants sprayed): 0 | Medium sensitivity ([2]; strain 20 T1, 3 plants sprayed): 1 | No phenotype ([2]; strain 20 T1, 3 plants sprayed): 0 | Highly sensitive ratio [2, 8]: 11/12 | Highly sensitive(dead) [2, 8]: 11 | Low sensitivity [2, 8]: 0 | Medium sensitivity [2, 8]: 1 | No phenotype [2, 8]: 0 | Highly sensitive ratio [2, 9]: 14/14 | Highly sensitive(dead) [2, 9]: 14 | Low sensitivity [2, 9]: 0 | Medium sensitivity [2, 9]: 0 | No phenotype [2, 9]: 0 | Highly sensitive ratio ([2]; strain 28 T1, 7 plants sprayed): 7/7 | Highly sensitive(dead) ([2]; strain 28 T1, 7 plants sprayed): 7 | Low sensitivity ([2]; strain 28 T1, 7 plants sprayed): 0 | Medium sensitivity ([2]; strain 28 T1, 7 plants sprayed): 0 | No phenotype ([2]; strain 28 T1, 7 plants sprayed): 0 | Highly sensitive ratio [2, 10]: 8/8 | Highly sensitive(dead) [2, 10]: 8 | Low sensitivity [2, 10]: 0 | Medium sensitivity [2, 10]: 0 | No phenotype [2, 10]: 0 | Highly sensitive ratio [2, 11]: 2/2 | Highly sensitive(dead) [2, 11]: 2 | Low sensitivity [2, 11]: 0 | Medium sensitivity [2, 11]: 0 | No phenotype [2, 11]: 0 | Highly sensitive ratio [2, 12]: 12/13 | Highly sensitive(dead) [2, 12]: 12 | Low sensitivity [2, 12]: 0 | Medium sensitivity [2, 12]: 1 | No phenotype [2, 12]: 0 | Highly sensitive ratio [2, 13]: 8/9 | Highly sensitive(dead) [2, 13]: 8 | Low sensitivity [2, 13]: 1 | Medium sensitivity [2, 13]: 0 | No phenotype [2, 13]: 0 | Highly sensitive ratio [2, 14]: 2/2 | Highly sensitive(dead) [2, 14]: 2 | Low sensitivity [2, 14]: 0 | Medium sensitivity [2, 14]: 0 | No phenotype [2, 14]: 0 | Highly sensitive ratio [2, 15]: 4/10 | Highly sensitive(dead) [2, 15]: 4 | Low sensitivity [2, 15]: 6 | Medium sensitivity [2, 15]: 0 | No phenotype [2, 15]: 0 | Highly sensitive ratio [2, 16]: 5/7 | Highly sensitive(dead) [2, 16]: 5 | Low sensitivity [2, 16]: 0 | Medium sensitivity [2, 16]: 2 | No phenotype [2, 16]: 0 | Highly sensitive ratio [2, 17]: 4/4 | Highly sensitive(dead) [2, 17]: 4 | Low sensitivity [2, 17]: 0 | Medium sensitivity [2, 17]: 0 | No phenotype [2, 17]: 0 | Highly sensitive ratio [2, 18]: 0/4 | Highly sensitive(dead) [2, 18]: 0 | Low sensitivity [2, 18]: 0 | Medium sensitivity [2, 18]: 0 | No phenotype [2, 18]: 4

COc1cc(OC)nc(Oc2cccc(Oc3nc(OC)cc(OC)n3)c2C(=O)O)n1 [bispyribac-sodium]
number of growth inhibited strains (mediumly resistant) [3, 19]: 163 strains | number of irreversible death or near-death strains (non-resistant or low resistant) [3, 19]: 216 strains | number of normal growth strains (highly resistant) [3, 19]: 184 strains | probability of GAT transformants showing normal growth, highly resistant ([3]; GAT T0 transformants, 600 mg/L spray): 32.68% | appearance of leaves after spraying ([3]; control ZH11, 600 mg/L bispyribac-sodium spray, 3 to 5 leaf stage, third day): withered and yellow | appearance after spraying ([3]; control ZH11, 600 mg/L bispyribac-sodium spray, 14th day): completely died | appearance after spraying ([3]; control ZH11, 600 mg/L bispyribac-sodium spray, seventh day): withered and yellow and was dying | Germination ([4]; strain 4, 45 seeds): 24 | Non-germination ([4]; strain 4, 45 seeds): 21 | Germination ([4]; strain 7, 29 seeds): 11 | Non-germination ([4]; strain 7, 29 seeds): 18 | Germination ([4]; strain 11-1, 58 seeds): 26 | Non-germination ([4]; strain 11-1, 58 seeds): 32 | Germination ([4]; strain 20, 40 seeds): 10 | Non-germination ([4]; strain 20, 40 seeds): 30 | Germination ([4]; strain 23-2, 30 seeds): 19 | Non-germination ([4]; strain 23-2, 30 seeds): 11 | Germination ([4]; strain 23, 110 seeds): 61 | Non-germination ([4]; strain 23, 110 seeds): 49 | Germination ([4]; strain 28, 59 seeds): 16 | Non-germination ([4]; strain 28, 59 seeds): 43 | Germination ([4]; strain 53-3, 19 seeds): 7 | Non-germination ([4]; strain 53-3, 19 seeds): 12 | Germination ([4]; strain 77-2, 46 seeds): 29 | Non-germination ([4]; strain 77-2, 46 seeds): 17 | Germination ([4]; strain 88-4, 62 seeds): 30 | Non-germination ([4]; strain 88-4, 62 seeds): 32 | Germination ([4]; strain 93-2, 34 seeds): 15 | Non-germination ([4]; strain 93-2, 34 seeds): 19 | Germination ([4]; strain 95-2, 35 seeds): 10 | Non-germination ([4]; strain 95-2, 35 seeds): 25 | Germination ([4]; strain 174-3, 15.2 seeds): 12 | Non-germination ([4]; strain 174-3, 15.2 seeds): 3.2 | Germination ([4]; strain 175-4): 14 | Non-germination ([4]; strain 175-4, 27.3 seeds): 13.3 | Germination ([4]; strain ZH11 (CK), 40 seeds): 0 | Non-germination ([4]; strain ZH11 (CK), 40 seeds): 40 | Survival number [5, 20]: 0 | Survival rate [5, 20]: 0.00% | Survival number [5, 21]: 0 | Survival rate [5, 21]: 0.00% | germination rate ([5]; hybrid seeds 1907 x GAT strains 23-2, 88-4, 1/2MS+3 uM BS): 0% | Survival number [5, 22]: 95 | Survival rate [5, 22]: 47.50% | Survival number [5, 23]: 83 | Survival rate [5, 23]: 41.50% | Survival number ([5]; strain 9311, total number 200): 0 | Survival rate ([5]; strain 9311, total number 200): 0.00% | Survival number ([5]; strain MH63, total number 200): 0 | Survival rate ([5]; strain MH63, total number 200): 0.00% | Survival number ([5]; strain ZH11, total number 200): 0 | Survival rate ([5]; strain ZH11, total number 200): 0.00%
